Where two headings read alike, the source gives them in different places.
Legend:
Assay type in all cases: cell-based
BT474 = assay: Cell proliferation assay (CellTiter Glo), BT474; conditions: Homo sapiens, BT-474, 168 h, 7 Day assay, charcoal stripped serum, no phenol red
Experimental: (§1) Cell lines were obtained from ATCC. Estrogen was obtained from SIGMA, 4-hydroxytamoxifen was obtained from SIGMA, Bosutinib was used for these studies. Charcoal-stripped serum and phenol red-free medium was obtained from Invitrogen. CellTiter Glo was obtained from Promega.
Cell cultures. Proliferation assays with cells in complete fetal calf serum were performed with medium containing phenol red. For all assays examining estrogen-dependence, cells were cultured in phenol red-free medium; DMEM/F12 (MCF7), RPMI1640 (MDA-MB-361, T47D) MEM (BT20, MDA-MB-231) McCoys5A modified (SKBR3), Leibowitz' L15 medium supplemented with 10 ng/mL insulin (MDA-MB-435 and MDA-MB-468) with 10% fetal bovine serum supplemented with glutamine and gentamicin. For proliferation assays, trypsinized cells were subjected to three cycles of centrifugation and resuspension in phenol red-free medium supplemented with charcoal stripped medium (5% final), glutamine and Pen/Strep. Cells were plated on day 0, with or without estrogen (10 nM final concentration). On day 1, 4-hydroxytamoxifen and SKI-606 or DMSO were added as a serial dilution. Cells were incubated for 7 days, after which CellTiter Glo (Promega) was added as recommended by the manufacturer. After mixing and two hours incubation on the bench, plates were read on an Envision reader. […]

SKBR3 (ER neg) = assay: Cell proliferation assay (CellTiter Glo), SKBR3; conditions: Homo sapiens
Experimental: as §1
Cell cultures. Proliferation assays with cells in complete fetal calf serum were performed with medium containing phenol red. For all assays examining estrogen-dependence, cells were cultured in phenol red-free medium; DMEM/F12 (MCF7), RPMI1640 (MDA-MB-361, T47D) MEM (BT20, MDA-MB-231) McCoys5A modified (SKBR3), Leibowitz' L15 medium supplemented with 10 ng/mL insulin (MDA-MB-435 and MDA-MB-468) with 10% fetal bovine serum supplemented with glutamine and gentamicin. For proliferation assays, trypsinized cells were subjected to three cycles of centrifugation and resuspension in phenol red-free medium supplemented with charcoal stripped medium (5% final), glutamine and Pen/Strep. Cells were plated on day 0, with or without estrogen (10 nM final concentration). On day 1, 4-hydroxytamoxifen and SKI-606 or DMSO were added as a serial dilution. Cells were incubated for 7 days, after which CellTiter Glo (Promega) was added as recommended by the manufacturer. After mixing and two hours incubation on the bench, plates were read on an Envision reader. […] The IC50 was calculated using a floating minima corresponding to the lowest luminescence value at 5 uM.
Cell proliferation assays were performed in two formats; a three day proliferation assay in fully supplemented medium with phenol red, and a 7 day proliferation assay in phenol red free medium supplemented with charcoal-stripped medium.
The complete medium data were obtained in 3-day assays, while stripped serum assays were extended for 7 days with one change of medium at day 5.

MDA-MB-468 (ER neg) = assay: Cell proliferation assay, MDA-MB-468; conditions: Homo sapiens, MDA-MB-468, 72 h; 3 Day assay, complete medium (10% FCS)
Experimental: as §1
Cell cultures. Proliferation assays with cells in complete fetal calf serum were performed with medium containing phenol red. For all assays examining estrogen-dependence, cells were cultured in phenol red-free medium; DMEM/F12 (MCF7), RPMI1640 (MDA-MB-361, T47D) MEM (BT20, MDA-MB-231) McCoys5A modified (SKBR3), Leibowitz' L15 medium supplemented with 10 ng/mL insulin (MDA-MB-435 and MDA-MB-468) with 10% fetal bovine serum supplemented with glutamine and gentamicin. For proliferation assays, trypsinized cells were subjected to three cycles of centrifugation and resuspension in phenol red-free medium supplemented with charcoal stripped medium (5% final), glutamine and Pen/Strep. Cells were plated on day 0, with or without estrogen (10 nM final concentration). On day 1, 4-hydroxytamoxifen and SKI-606 or DMSO were added as a serial dilution. […] After mixing and two hours incubation on the bench, plates were read on an Envision reader. […] The 10 uM data point was dropped for these two lines since there was a clear plateau prior to the sharp drop in luminescence observed at 10 uM compound. […]

COc1cc(Nc2c(C#N)cnc3cc(OCCCN4CCN(C)CC4)c(OC)cc23)c(Cl)cc1Cl [bosutinib]
IC50 (BT474; 10 nM estrogen, read-out: IC50 (uM) E2): 2.32 µM
IC50 (BT474; without estrogen, read-out: IC50 (uM) no E2): 2.22 µM
IC50 (SKBR3 (ER neg); SK-BR-3, 72 h, 3 Day assay, complete medium (10% FCS), read-out: IC50 (uM) 10% FCS): 1.5 µM
IC50 (SKBR3 (ER neg); SK-BR-3, 168 h, 7 Day assay, charcoal stripped serum, no phenol red, 10 nM estrogen, read-out: IC50 (uM) E2): 1.38 µM
IC50 (SKBR3 (ER neg); SK-BR-3, 168 h, 7 Day assay, charcoal stripped serum, no phenol red, without estrogen, read-out: IC50 (uM) no E2): 1.43 µM
IC50 (MDA-MB-468 (ER neg)): 5 µM
